Results reported in patent publication US20050112573A1, “Method of detecting toxic substance” (priority 2001, published 2005).

System: yeast genes (level of expressed mRNA)
Assay: DNA chip analysis of expressed mRNA of yeast genes after 2 h culture with a toxic chemical substance
Type: cell-based, Saccharomyces cerevisiae S288C
Procedure: Yeast (Saccharomyces cerevtisiae S288C (α SUC2mal mel gap2 CUP1)) were cultured at 25° C. on YPD medium (yeast extract 1%, polypepton 2%, glucose 2%). One of toxic chemical substances was added to the cell at logarithmic growth phase, and the cell was further cultured for two hours. Cell was cultured without any chemical substance in the same condition, and was used as control. Concentrations of the chemical substances were defined to inhibit the growth of the yeast but not lead to death.
After the completion of cultivation, the culture was centrifuged to collect the cells. To the cells, sodium acetate buffer (50 mM sodium acetate, 10 mM EDTA, 1% SDS) was added, and the mixture was shaken at 65° C. for five minutes, followed by returning to room temperature, and obtaining the supernatant, which procedure was repeated two times. To the supernatant, ½ amount of a solution of phenol/chloroform was added, and the mixture was centrifuged to give a supernatant, which was added with an equal amount of chloroform, and the mixture was centrifuged to give a supernatant. To the supernatant, an equal amount of isopropanol containing 0.3 M sodium acetate was added, and the mixture was allowed to stand at room temperature for 30 minutes, after which the mixture was centrifuged to give a sediment of the whole RNAs. Seventy % ethanol was added to the sediment, and the mixture was again centrifuged to give a sediment, which was then dried and dissolved in water. mRNA was isolated from the whole RNAs as followings. In view of the fact that a poly A chain is attached to the 3′ terminus of mRNA, a polynucleotide having a poly T structure which was immobilized on the surface of latex beads was used to trap the mRNA, and then the mRNA was washed and eluted with spine column (Oligotex-dT30<Super>mRNA Purification Kit, Takara). Reverse transcription of the mRNA was conducted with a reverse transcriptase (Super Script II Reverse Transcriptase; catalogue No. 18064-014, GibcoBRL) using fluorescence-labeled nucleotides to give cDNAs that were introduced with Cy3-dUTP or Cy5-dUTP during the reverse transcription.
The labeled cDNAs were dissolved in TE buffer (10 mM Tris-HCl/1 mM EDTA, pH8.0), and the solution was dropped on the DNA chip containing the whole genes of yeast (DNA Chip Research Inc. Japan) so that the cDNAs were hybridized on the DNA chip at 65° C. for over 12 hours. The fluoresces intensity of the DNA chip was read with a scanner, and the ratio relative to the fluorescence intensity resulting from the absence of chemical substance was estimated as the following, which is shown in Tables 1 to 9: [formula]
In the Tables, “Intensity” indicated in the rightmost column is a value of the level of expressed mRNA of each gene in control cells as divided by the average level of the expressions of the whole genes.

In the case of `CCCCCCCCCCCCOS(=O)(=O)[O-].[Na+]` [(18), sodium lauryl sulfate], the “The level of expressed mRNA in the presence of chemical substance/absence: YGR293C” value (gene YGR293C) was 0.9, the “The level of expressed mRNA in the presence of chemical substance/absence: YHL006C” value (gene YHL006C) was 1.0 and the “The level of expressed mRNA in the presence of chemical substance/absence: YHL021C” value (gene YHL021C) was 3.6. For the same compound, the “The level of expressed mRNA in the presence of chemical substance/absence: YHL037C” value (gene YHL037C) was 0.9, the “level of expressed mRNA in the presence of chemical substance/in its absence” value (from here on “level … of chemical substance/in its absence”) (gene YHR037W) was 1.4 and the “The level of expressed mRNA in the presence of chemical substance/absence: YHR083W” value (gene YHR083W) was 1.0. The “level … of chemical substance/in its absence” value (gene YHR092C) was 1.3, the “The level of expressed mRNA in the presence of chemical substance/absence: YHR095W” value (gene YHR095W) was 0.7 and the “The level of expressed mRNA in the presence of chemical substance/absence: YHR105W” value (gene YHR105W) was 0.9. The “The level of expressed mRNA in the presence of chemical substance/absence: YHR134W” value (gene YHR134W) was 1.3, the “level … of chemical substance/in its absence” value (gene YHR137W) was 1.3 and the “The level of expressed mRNA in the presence of chemical substance/absence: YHR180W” value (gene YHR180W) was 1.0. The “The level of expressed mRNA in the presence of chemical substance/absence: YHR181W” value (gene YHR181W) was 0.9, the “level … of chemical substance/in its absence” value (gene YHR190W) was 1.8 and the “level … of chemical substance/in its absence” value (gene YIL033C) was 1.2. The “The level of expressed mRNA in the presence of chemical substance/absence: YIL108W” value (gene YIL108W) was 0.7, the “The level of expressed mRNA in the presence of chemical substance/absence: YIL127C” value (gene YIL127C) was 0.6 and the “level … of chemical substance/in its absence” value (gene YIL154C) was 1.0. For the same compound, the “The level of expressed mRNA in the presence of chemical substance/absence: YIL165C” value (gene YIL165C) was 1.3, the “level … of chemical substance/in its absence” value (gene YIL167W) was 0.8 and the “level … of chemical substance/in its absence” value (gene YIR035C) was 0.9. For the same compound, the “The level of expressed mRNA in the presence of chemical substance/absence: YJL017W” value (gene YJL017W) was 1.0, the “The level of expressed mRNA in the presence of chemical substance/absence: YJL032W” value (gene YJL032W) was 1.1 and the “The level of expressed mRNA in the presence of chemical substance/absence: YJL037W” value (gene YJL037W) was 0.9. For the same compound, the “The level of expressed mRNA in the presence of chemical substance/absence: YJL049W” value (gene YJL049W) was 1.1, the “level … of chemical substance/in its absence” value (gene YJL088W) was 0.9 and the “The level of expressed mRNA in the presence of chemical substance/absence: YJL097W” value (gene YJL097W) was 1.1. The “level … of chemical substance/in its absence” value (gene YJL132W) was 1.5, the “level … of chemical substance/in its absence” value (gene YJL196C) was 1.9 and the “The level of expressed mRNA in the presence of chemical substance/absence: YJR030C” value (gene YJR030C) was 0.9. For the same compound, the “The level of expressed mRNA in the presence of chemical substance/absence: YJR044C” value (gene YJR044C) was 1.6, the “level … of chemical substance/in its absence” value (gene YJR142W) was 1.4 and the “level … of chemical substance/in its absence” value (gene YJR148W) was 1.7. For the same compound, the “level … of chemical substance/in its absence” value (gene YJR159W) was 2.3, the “The level of expressed mRNA in the presence of chemical substance/absence: YKL051W” value (gene YKL051W) was 1.4 and the “The level of expressed mRNA in the presence of chemical substance/absence: YKL059C” value (gene YKL059C) was 0.9. For the same compound, the “level … of chemical substance/in its absence” value (gene YKL067W) was 3.2, the “The level of expressed mRNA in the presence of chemical substance/absence: YKL090W” value (gene YKL090W) was 1.0 and the “The level of expressed mRNA in the presence of chemical substance/absence: YKL094W” value (gene YKL094W) was 1.9. For the same compound, the “The level of expressed mRNA in the presence of chemical substance/absence: YKL097C” value (gene YKL097C) was 0.5, the “The level of expressed mRNA in the presence of chemical substance/absence: YKL100C” value (gene YKL100C) was 1.5 and the “level … of chemical substance/in its absence” value (gene YKR039W) was 1.1. For the same compound, the “The level of expressed mRNA in the presence of chemical substance/absence: YKR040C” value (gene YKR040C) was 0.8, the “The level of expressed mRNA in the presence of chemical substance/absence: YLR097C” value (gene YLR097C) was 1.7 and the “level … of chemical substance/in its absence” value (gene YLR142W) was 3.2. For the same compound, the “level … of chemical substance/in its absence” value (gene YLR180W) was 0.7, the “The level of expressed mRNA in the presence of chemical substance/absence: YLR226W” value (gene YLR226W) was 1.0 and the “level … of chemical substance/in its absence” value (gene YLR273C) was 1.0. For the same compound, the “level … of chemical substance/in its absence” value (gene YLR300W) was 0.5, the “level … of chemical substance/in its absence” value (gene YLR307W) was 1.0 and the “The level of expressed mRNA in the presence of chemical substance/absence: YLR338W” value (gene YLR338W) was 0.6. The “The level of expressed mRNA in the presence of chemical substance/absence: YLR339C” value (gene YLR339C) was 0.6, the “The level of expressed mRNA in the presence of chemical substance/absence: YLR392C” value (gene YLR392C) was 1.6 and the “The level of expressed mRNA in the presence of chemical substance/absence: YLR415C” value (gene YLR415C) was 1.0. For the same compound, the “The level of expressed mRNA in the presence of chemical substance/absence: YLR427W” value (gene YLR427W) was 1.0, the “The level of expressed mRNA in the presence of chemical substance/absence: YML013W” value (gene YML013W) was 0.8 and the “The level of expressed mRNA in the presence of chemical substance/absence: YML029W” value (gene YML029W) was 1.0.
